Data: patent US11046716B2, “Beta-lactamase inhibitors” (priority 2015, dated 2021)

Columns and labels:
[1] = system: K. pneumoniae expressing the class A carbapenemase KPC-2 and the class B carbapenemase VIM-4; assay: Broth microdilution MIC assay with meropenem, K. pneumoniae KPC-2 and VIM-4; type: cell-based; settings: Fixed Mero (meropenem) 4 μg/mL; K. p. A-1797 KPC-2 VIM-4
In short: (§1)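 CAMHB; cpd 2-fold serial dilution, 16–0.125 μg/mL final; β-lactam static 4 μg/ml; CLSI inoculation; 16–20 h, 37° C; MIC read by eye.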

KPC-2 = molecular target: T1, KPC-2 (Klebsiella pneumoniae, UniProt Q9F663); assay: β-lactamase enzyme inhibition assay, KPC-2 (imipenem substrate); type: biochemical; settings: Class A; imipenem substrate, 300 nm; read-out: KPC-2
T1 construct: made in house; host or cells: E. coli BL21(DE3)
In short: (§2)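 Untagged enzyme from E. coli BL21(DE3), purified by Capto S then Superdex 75; 15 min 37 °C preincubation with inhibitor; KPC-2 read with imipenem at 300 nm, SHV-5 with cefotaxime at 260 nm, OXA-1 with nitrocefin 100 μM final at 486 nm; 10 min kinetic read; IC50 vs uninhibited wells.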

[2] = system: K. pneumoniae producing the Class D carbapenemase OXA-48; assay: Broth microdilution MIC assay with meropenem, K. pneumoniae OXA-48; type: cell-based; settings: Fixed Mero (meropenem) 4 μg/mL; K. p. 11978 OXA-48
In short: as §1

AmpC = molecular target: T2, AmpC (Enterobacter cloacae, UniProt P05364); assay: β-lactamase enzyme inhibition assay, p99 AmpC (nitrocefin substrate); type: biochemical
T2 construct: made in house; host or cells: E. coli BL21(DE3)
In short: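 Untagged enzyme from E. coli BL21(DE3), purified by Capto S then Superdex 75; 15 min 37 °C preincubation with inhibitor; 10 min kinetic read; IC50 vs uninhibited wells.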

VIM-2 = molecular target: T3, VIM-2 (Escherichia coli, UniProt Q5U7L7); assay: β-lactamase enzyme inhibition assay, VIM-2 (nitrocefin substrate); type: biochemical; settings: Class B; nitrocefin substrate, 486 nm; read-out: VIM-2
T3 construct: made in house; host or cells: E. coli BL21(DE3)
In short: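 Enzyme + inhibitor, 37 °C, 15 min; nitrocefin 100 μM final; A486 read for 10 min. % inhibition vs no-inhibitor wells per concentration; IC50 = concentration halving initial hydrolysis rate.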

[3] = system: E. cloacae expressing the Class C P99; assay: Broth microdilution MIC assay with ceftazidime, E. cloacae P99; type: cell-based; settings: Fixed CAZ (ceftazidime) 4 μg/mL; E. cl. 144200 p99 AmpC
In short: as §1

[4] = system: K. pneumoniae expressing the Class A carbapenemase KPC-2; assay: Broth microdilution MIC assay with meropenem, K. pneumoniae KPC-2; type: cell-based; settings: Fixed Mero (meropenem) 4 μg/mL; K. p. 156319 KPC-3
In short: as §1

[5] = system: E. coli expressing the Class A Extended Spectrum Beta-Lactamase (ESBL) CTX-M-15; assay: Broth microdilution MIC assay with ceftazidime, E. coli CTX-M-15; type: cell-based; settings: Fixed CAZ (ceftazidime) 4 μg/mL; E. coli ESBL4 CTX-M-15
In short: as §1

SHV-5 = molecular target: T4, SHV-5 (Klebsiella pneumoniae, UniProt P0A3M1); assay: β-lactamase enzyme inhibition assay, SHV-5 (cefotaxime substrate); type: biochemical
T4 construct: made in house; host or cells: E. coli BL21(DE3)
In short: as §2

[6] = system: P. aeruginosa expressing the Class B carbapenemase VIM-2; assay: Broth microdilution MIC assay with meropenem, P. aeruginosa VIM-2; type: cell-based; settings: Fixed Mero (meropenem) 4 μg/mL; P. aerug. 2775 VIM-2
In short: as §1

OXA-48 = OXA-48 (UniProt Q6XEC0); assay: β-lactamase enzyme inhibition assay, Class D oxacillinase; type: biochemical; settings: read-out: OXA-48

T4 sequence (P0A3M1 22-286): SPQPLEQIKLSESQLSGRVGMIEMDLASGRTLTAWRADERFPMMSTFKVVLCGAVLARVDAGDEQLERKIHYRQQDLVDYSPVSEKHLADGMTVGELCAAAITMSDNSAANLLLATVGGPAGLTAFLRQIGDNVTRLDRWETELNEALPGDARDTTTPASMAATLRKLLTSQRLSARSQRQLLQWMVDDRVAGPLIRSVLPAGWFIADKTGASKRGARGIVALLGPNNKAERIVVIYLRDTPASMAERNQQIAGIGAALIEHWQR
T2 sequence (P05364 21-381): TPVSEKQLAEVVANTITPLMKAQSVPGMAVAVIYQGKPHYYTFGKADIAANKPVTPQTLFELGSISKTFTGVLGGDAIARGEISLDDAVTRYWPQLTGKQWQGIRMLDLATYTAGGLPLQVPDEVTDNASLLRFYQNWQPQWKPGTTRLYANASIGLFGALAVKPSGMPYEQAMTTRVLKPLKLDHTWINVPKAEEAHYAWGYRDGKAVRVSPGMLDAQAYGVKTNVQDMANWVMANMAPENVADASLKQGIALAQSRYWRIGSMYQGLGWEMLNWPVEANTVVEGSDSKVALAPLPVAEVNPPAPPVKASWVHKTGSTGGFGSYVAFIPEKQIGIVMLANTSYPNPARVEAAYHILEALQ
T1 sequence (Q9F663 25-293, looked up): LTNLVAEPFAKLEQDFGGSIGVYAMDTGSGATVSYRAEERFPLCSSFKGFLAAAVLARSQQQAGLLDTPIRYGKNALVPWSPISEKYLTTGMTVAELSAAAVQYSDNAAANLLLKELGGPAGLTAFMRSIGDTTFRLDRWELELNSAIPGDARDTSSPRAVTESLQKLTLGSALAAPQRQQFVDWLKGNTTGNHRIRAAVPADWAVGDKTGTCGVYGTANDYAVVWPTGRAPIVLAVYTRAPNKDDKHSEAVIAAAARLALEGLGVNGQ

| Structure (SMILES) | MIC (μg/mL) of Exemplary Compounds in presence of fixed β-lactams: K. p. A-1797 KPC-2 VIM-4 [1] | IC50 (KPC-2) | MIC (μg/mL) of Exemplary Compounds in presence of fixed β-lactams: K. p. 11978 OXA-48 [2] | IC50 (AmpC) | IC50 (VIM-2) | MIC (μg/mL) of Exemplary Compounds in presence of fixed β-lactams: E. cl. 144200 p99 AmpC [3] | MIC (μg/mL) of Exemplary Compounds in presence of fixed β-lactams: K. p. 156319 KPC-3 [4] | MIC (μg/mL) of Exemplary Compounds in presence of fixed β-lactams: E. coli ESBL4 CTX-M-15 [5] | IC50 (SHV-5) | MIC (μg/mL) of Exemplary Compounds in presence of fixed β-lactams: P. aerug. 2775 VIM-2 [6] | IC50 (OXA-48) |
| --- | --- | --- | --- | --- | --- | --- | --- | --- | --- | --- | --- |
| O=C(Cn1cc(C2CCNC2)nn1)N[C@H]1Cc2cccc(C(=O)O)c2OB1O (stereo partly drawn) [Example 89, (3R)-2-hydroxy-3-(2-(4-(pyrrolidin-3-yl)-1H-1,2,3-triazol-1-yl)acetamido)-3,4-dihydro-2H-benzo[e][1,2]oxaborinine-8-carboxylic acid] | B (B represents an MIC between 1 and 16 μg/mL inclusive) | 100 to 1000 nM | B (B represents an MIC between 1 and 16 μg/mL inclusive) | < 100 nM | 100 to 1000 nM | C (C represents an MIC of <1 μg/mL) | C (C represents an MIC of <1 μg/mL) | C (C represents an MIC of <1 μg/mL) | 100 to 1000 nM | C (C represents an MIC of <1 μg/mL) | 1000 to 10000 nM |
| O=C(Cn1cc(C2CNC2)nn1)N[C@H]1Cc2cccc(C(=O)O)c2OB1O [Example 90, (R)-3-(2-(4-(azetidin-3-yl)-1H-1,2,3-triazol-1-yl)acetamido)-2-hydroxy-3,4-dihydro-2H-benzo[e][1,2]oxaborinine-8-carboxylic acid] | B (B represents an MIC between 1 and 16 μg/mL inclusive) | < 100 nM | B (B represents an MIC between 1 and 16 μg/mL inclusive) | < 100 nM | 100 to 1000 nM | C (C represents an MIC of <1 μg/mL) | B (B represents an MIC between 1 and 16 μg/mL inclusive) | C (C represents an MIC of <1 μg/mL) | 100 to 1000 nM | C (C represents an MIC of <1 μg/mL) | 1000 to 10000 nM |
| N=C(N)N1CC(c2cn(CC(=O)N[C@H]3Cc4cccc(C(=O)O)c4OB3O)nn2)C1 [Example 91, (R)-3-(2-(4-(1-carbamimidoylazetidin-3-yl)-1H-1,2,3-triazol-1-yl)acetamido)-2-hydroxy-3,4-dihydro-2H-benzo[e][1,2]oxaborinine-8-carboxylic acid] | B (B represents an MIC between 1 and 16 μg/mL inclusive) | < 100 nM | B (B represents an MIC between 1 and 16 μg/mL inclusive) | < 100 nM | 100 to 1000 nM | C (C represents an MIC of <1 μg/mL) | C (C represents an MIC of <1 μg/mL) | C (C represents an MIC of <1 μg/mL) | < 100 nM | B (B represents an MIC between 1 and 16 μg/mL inclusive) | 1000 to 10000 nM |
| NCC(O)Cc1cn(CC(=O)N[C@H]2Cc3cccc(C(=O)O)c3OB2O)nn1 (stereo partly drawn) [Example 92, (3R)-3-(2-(4-(3-amino-2-hydroxypropyl)-1H-1,2,3-triazol-1-yl)acetamido)-2-hydroxy-3,4-dihydro-2H-benzo[e][1,2]oxaborinine-8-carboxylic acid] | B (B represents an MIC between 1 and 16 μg/mL inclusive) | < 100 nM | B (B represents an MIC between 1 and 16 μg/mL inclusive) | < 100 nM | < 100 nM | C (C represents an MIC of <1 μg/mL) | C (C represents an MIC of <1 μg/mL) | C (C represents an MIC of <1 μg/mL) | 100 to 1000 nM | C (C represents an MIC of <1 μg/mL) | 1000 to 10000 nM |
| N=C(N)NCC(O)Cc1cn(CC(=O)N[C@H]2Cc3cccc(C(=O)O)c3OB2O)nn1 (stereo partly drawn) [Example 93, (3R)-3-(2-(4-(3-guanidino-2-hydroxypropyl)-1H-1,2,3-triazol-1-yl)acetamido)-2-hydroxy-3,4-dihydro-2H-benzo[e][1,2]oxaborinine-8-carboxylic acid] | B (B represents an MIC between 1 and 16 μg/mL inclusive) | < 100 nM | B (B represents an MIC between 1 and 16 μg/mL inclusive) | < 100 nM | 100 to 1000 nM | C (C represents an MIC of <1 μg/mL) | B (B represents an MIC between 1 and 16 μg/mL inclusive) | C (C represents an MIC of <1 μg/mL) | < 100 nM | C (C represents an MIC of <1 μg/mL) | 1000 to 10000 nM |
| NNC(=O)Cn1nnc(CC(=O)N[C@H]2Cc3cccc(C(=O)O)c3OB2O)n1 [Example 96, (R)-3-(2-(2-(2-hydrazinyl-2-oxoethyl)-2H-tetrazol-5-yl)acetamido)-2-hydroxy-3,4-dihydro-2H-benzo[e][1,2]oxaborinine-8-carboxylic acid] | B (B represents an MIC between 1 and 16 μg/mL inclusive) | < 100 nM | B (B represents an MIC between 1 and 16 μg/mL inclusive) | < 100 nM | 100 to 1000 nM | C (C represents an MIC of <1 μg/mL) | B (B represents an MIC between 1 and 16 μg/mL inclusive) | C (C represents an MIC of <1 μg/mL) | < 100 nM | C (C represents an MIC of <1 μg/mL) | < 100 nM |
| O=C(Cn1cnnn1)N[C@H]1Cc2cccc(C(=O)O)c2OB1O [Example 97, (R)-3-(2-(1H-tetrazol-1-yl)acetamido)-2-hydroxy-3,4-dihydro-2H-benzo[e][1,2]oxaborinine-8-carboxylic acid] | B (B represents an MIC between 1 and 16 μg/mL inclusive) | < 100 nM | C (C represents an MIC of <1 μg/mL) | < 100 nM | 100 to 1000 nM | C (C represents an MIC of <1 μg/mL) | C (C represents an MIC of <1 μg/mL) | C (C represents an MIC of <1 μg/mL) | < 100 nM | B (B represents an MIC between 1 and 16 μg/mL inclusive) | < 100 nM |
| O=C(Cc1nnnn1CC1CCNCC1)N[C@H]1Cc2cccc(C(=O)O)c2OB1O [Example 98, (R)-2-hydroxy-3-(2-(1-(piperidin-4-ylmethyl)-1H-tetrazol-5-yl)acetamido)-3,4-dihydro-2H-benzo[e][1,2]oxaborinine-8-carboxylic acid] | B (B represents an MIC between 1 and 16 μg/mL inclusive) | < 100 nM | B (B represents an MIC between 1 and 16 μg/mL inclusive) | < 100 nM | < 100 nM | C (C represents an MIC of <1 μg/mL) | C (C represents an MIC of <1 μg/mL) | C (C represents an MIC of <1 μg/mL) | < 100 nM | C (C represents an MIC of <1 μg/mL) | 100 to 1000 nM |
